{
  "source": "patent US20250176599A1",
  "about": "“FLAVOR COMPOSITION AND FOOD AND BEVERAGE” (TAKASAGO INTERNATIONAL CORPORATION, priority 2021, published 2025)",
  "key": {"[1]": {"test": "Sensory evaluation of aqueous solution I containing (E)-2-nonenal 1 ppb: off-flavor intensity and masking component intensity", "settings": "(E)-2-nonenal 1 ppb, average score 0-4", "experimental": "(§1) In ion-exchanged water, each degradation component was added to achieve the concentrations listed in Table 1, and aqueous solutions I to VI containing these degradation components were prepared.\n(§2) For the aforementioned aqueous solutions containing degradation components, nootkatone was added at the concentrations listed in Table 2 to confirm the intensity of the off-flavor (masking effect) in each sample and the intensity of the masking component itself (the impact on the flavor of the food and/or beverage itself).\n(§3) The test was conducted as follows. Eight experienced panelists were selected to conduct a sensory evaluation. The intensity of the off-flavor of the aqueous solution containing the degradation components derived from unsaturated fatty acids, without added masking components, was set as “Evaluation: 4.” The ion-exchanged water free of any degradation components was set as “Evaluation: 0.” The intensity of the off-flavor (masking effect) of each sample was then relatively evaluated according to the following evaluation criteria.\n(§4) • Off-flavor is strongly sensed: 4 points • Off-flavor is sensed: 3 points • Off-flavor is slightly sensed: 2 points • Off-flavor is barely sensed: 1 point • Off-flavor is not sensed at all: 0 points\n(§5) Also, the intensity of the masking components (impact on the flavor of the food and/or beverage itself) was absolutely evaluated according to the following evaluation criteria.\n(§6) • Masking component is strongly sensed: 4 points • Masking component is sensed: 3 points • Masking component is slightly sensed: 2 points • Masking component is barely sensed: 1 point • Masking component is not sensed at all: 0 points"}, "[2]": {"test": "Sensory evaluation of aqueous solution II containing (E)-2-octenal 10 ppb: off-flavor intensity and masking component intensity", "settings": "(E)-2-octenal 10 ppb, average score 0-4", "experimental": "as §1, §2, §3, §4, §5, §6"}, "[3]": {"test": "Sensory evaluation of aqueous solution III containing 1-octen-3-one 1 ppb: off-flavor intensity and masking component intensity", "settings": "1-octen-3-one 1 ppb, average score 0-4", "experimental": "as §1, §2, §3, §4, §5, §6"}, "[4]": {"test": "Sensory evaluation of aqueous solution IV containing 1,5-octadien-3-one 100 ppt: off-flavor intensity and masking component intensity", "settings": "aqueous solution IV, 1,5-octadien-3-one 100 ppt, average score 0-4", "experimental": "as §1, §2, §3, §4, §5, §6"}, "[5]": {"test": "Sensory evaluation of aqueous solution V containing 1-octen-3-ol 10 ppb: off-flavor intensity and masking component intensity", "settings": "1-octen-3-ol 10 ppb, average score 0-4", "experimental": "as §1, §2, §3, §4, §5, §6"}, "[6]": {"test": "Sensory evaluation of aqueous solution VI containing 1,5-octadien-3-ol 10 ppb: off-flavor intensity and masking component intensity", "settings": "aqueous solution VI, 1,5-octadien-3-ol 10 ppb, average score 0-4", "experimental": "as §1, §2, §3, §4, §5, §6"}, "[7]": {"test": "Overall conclusion of the sensory evaluation across aqueous solutions I to VI", "experimental": "as §1, §2, §3, §4, §5, §6"}},
  "data": [
    {"compound": "CCCC(=O)C(C)=O", "note": "[2,3-Hexanedione, 2,3-hexanedione]", "values": [
      {"measurement": "Off-Flavor Intensity", "setting": "[1]; 1 ppb added", "value": 3.4, "unit": "points"},
      {"measurement": "Off-Flavor Intensity", "setting": "[1]; 1 ppm added", "value": 1.6, "unit": "points"},
      {"measurement": "Off-Flavor Intensity", "setting": "[1]; 5 ppb added", "value": 3.4, "unit": "points"},
      {"measurement": "Off-Flavor Intensity", "setting": "[1]; 5 ppm added", "value": 1.1, "unit": "points"},
      {"measurement": "Off-Flavor Intensity", "setting": "[1]; 10 ppb added", "value": 3.3, "unit": "points"},
      {"measurement": "Off-Flavor Intensity", "setting": "[1]; 10 ppm added", "value": 0.9, "unit": "points"},
      {"measurement": "Off-Flavor Intensity", "setting": "[1]; 50 ppb added", "value": 2.6, "unit": "points"},
      {"measurement": "Off-Flavor Intensity", "setting": "[1]; 100 ppb added", "value": 2.4, "unit": "points"},
      {"measurement": "Off-Flavor Intensity", "setting": "[1]; 500 ppb added", "value": 2.0, "unit": "points"},
      {"measurement": "Off-Flavor Intensity", "setting": "[2]; 1 ppb added", "value": 3.0, "unit": "points"},
      {"measurement": "Off-Flavor Intensity", "setting": "[2]; 1 ppm added", "value": 2.0, "unit": "points"},
      {"measurement": "Off-Flavor Intensity", "setting": "[2]; 5 ppb added", "value": 3.0, "unit": "points"},
      {"measurement": "Off-Flavor Intensity", "setting": "[2]; 5 ppm added", "value": 1.4, "unit": "points"},
      {"measurement": "Off-Flavor Intensity", "setting": "[2]; 10 ppb added", "value": 2.6, "unit": "points"},
      {"measurement": "Off-Flavor Intensity", "setting": "[2]; 10 ppm added", "value": 1.0, "unit": "points"},
      {"measurement": "Off-Flavor Intensity", "setting": "[2]; 50 ppb added", "value": 2.5, "unit": "points"},
      {"measurement": "Off-Flavor Intensity", "setting": "[2]; 100 ppb added", "value": 2.0, "unit": "points"},
      {"measurement": "Off-Flavor Intensity", "setting": "[2]; 500 ppb added", "value": 2.0, "unit": "points"},
      {"measurement": "Off-Flavor Intensity", "setting": "[3]; 1 ppb added", "value": 4.0, "unit": "points"},
      {"measurement": "Off-Flavor Intensity", "setting": "[3]; 1 ppm added", "value": 2.3, "unit": "points"},
      {"measurement": "Off-Flavor Intensity", "setting": "[3]; 5 ppb added", "value": 3.9, "unit": "points"},
      {"measurement": "Off-Flavor Intensity", "setting": "[3]; 5 ppm added", "value": 1.8, "unit": "points"},
      {"measurement": "Off-Flavor Intensity", "setting": "[3]; 10 ppb added", "value": 3.6, "unit": "points"},
      {"measurement": "Off-Flavor Intensity", "setting": "[3]; 10 ppm added", "value": 1.5, "unit": "points"},
      {"measurement": "Off-Flavor Intensity", "setting": "[3]; 50 ppb added", "value": 3.4, "unit": "points"},
      {"measurement": "Off-Flavor Intensity", "setting": "[3]; 100 ppb added", "value": 3.0, "unit": "points"},
      {"measurement": "Off-Flavor Intensity", "setting": "[3]; 500 ppb added", "value": 2.5, "unit": "points"},
      {"measurement": "Off-Flavor Intensity", "setting": "[4]; 1 ppb added", "value": 3.6, "unit": "points"},
      {"measurement": "Off-Flavor Intensity", "setting": "[4]; 1 ppm added", "value": 2.1, "unit": "points"},
      {"measurement": "Off-Flavor Intensity", "setting": "[4]; 5 ppb added", "value": 3.5, "unit": "points"},
      {"measurement": "Off-Flavor Intensity", "setting": "[4]; 5 ppm added", "value": 1.5, "unit": "points"},
      {"measurement": "Off-Flavor Intensity", "setting": "[4]; 10 ppb added", "value": 3.4, "unit": "points"},
      {"measurement": "Off-Flavor Intensity", "setting": "[4]; 10 ppm added", "value": 0.8, "unit": "points"},
      {"measurement": "Off-Flavor Intensity", "setting": "[4]; 50 ppb added", "value": 2.9, "unit": "points"},
      {"measurement": "Off-Flavor Intensity", "setting": "[4]; 100 ppb added", "value": 2.9, "unit": "points"},
      {"measurement": "Off-Flavor Intensity", "setting": "[4]; 500 ppb added", "value": 2.6, "unit": "points"},
      {"measurement": "Off-Flavor Intensity", "setting": "[5]; 1 ppb added", "value": 3.1, "unit": "points"},
      {"measurement": "Off-Flavor Intensity", "setting": "[5]; 1 ppm added", "value": 1.5, "unit": "points"},
      {"measurement": "Off-Flavor Intensity", "setting": "[5]; 5 ppb added", "value": 2.9, "unit": "points"},
      {"measurement": "Off-Flavor Intensity", "setting": "[5]; 5 ppm added", "value": 0.9, "unit": "points"},
      {"measurement": "Off-Flavor Intensity", "setting": "[5]; 10 ppb added", "value": 2.5, "unit": "points"},
      {"measurement": "Off-Flavor Intensity", "setting": "[5]; 10 ppm added", "value": 0.4, "unit": "points"},
      {"measurement": "Off-Flavor Intensity", "setting": "[5]; 50 ppb added", "value": 2.3, "unit": "points"},
      {"measurement": "Off-Flavor Intensity", "setting": "[5]; 100 ppb added", "value": 2.0, "unit": "points"},
      {"measurement": "Off-Flavor Intensity", "setting": "[5]; 500 ppb added", "value": 1.8, "unit": "points"},
      {"measurement": "Off-Flavor Intensity", "setting": "[6]; 1 ppb added", "value": 3.4, "unit": "points"},
      {"measurement": "Off-Flavor Intensity", "setting": "[6]; 1 ppm added", "value": 1.6, "unit": "points"},
      {"measurement": "Off-Flavor Intensity", "setting": "[6]; 5 ppb added", "value": 3.4, "unit": "points"},
      {"measurement": "Off-Flavor Intensity", "setting": "[6]; 5 ppm added", "value": 1.0, "unit": "points"},
      {"measurement": "Off-Flavor Intensity", "setting": "[6]; 10 ppb added", "value": 3.0, "unit": "points"},
      {"measurement": "Off-Flavor Intensity", "setting": "[6]; 10 ppm added", "value": 0.5, "unit": "points"},
      {"measurement": "Off-Flavor Intensity", "setting": "[6]; 50 ppb added", "value": 2.8, "unit": "points"},
      {"measurement": "Off-Flavor Intensity", "setting": "[6]; 100 ppb added", "value": 2.6, "unit": "points"},
      {"measurement": "Off-Flavor Intensity", "setting": "[6]; 500 ppb added", "value": 2.1, "unit": "points"},
      {"measurement": "concentration that masks the off-flavor and does not affect the flavor of the food and/or beverage itself, lower limit", "setting": "[7]", "value": "≥ 1", "unit": "ppb"},
      {"measurement": "concentration that masks the off-flavor and does not affect the flavor of the food and/or beverage itself, upper limit", "setting": "[7]", "value": "≤ 1", "unit": "ppm"}
    ]}
  ]
}
